Measured values reported in patent US8153787B2 (priority 2005, dated 2012).
≈ marks a conversion by molar mass, not a printed value. Like-named read-outs stand apart in the source and are kept apart here.

Columns and labels:
[1] = system: primate polyomavirus (SV40); test: microbe, parasite or virus in culture; type: cell-based, simian polyomavirus SV40; conditions: for EC50: Polyomavirus sp., BSC-1, in Primates
[2] = system: herpes simplex virus type 1 (HSV-1); test: microbe, parasite or virus in culture; type: cell-based; conditions: Human alphaherpesvirus 1, HEL, read-out: EC50 HSV-1 (Kos strain)
[3] = system: Varicella-Zoster Virus (VZV); test: microbe, parasite or virus in culture; type: cell-based; conditions: Human alphaherpesvirus 3, HEL
Orf virus (NZ2) = test: microbe, parasite or virus in culture; type: cell-based; conditions: Orf virus, HEL, read-out: EC50 Orf virus NZ2
Cowpox virus (Brighton) = test: microbe, parasite or virus in culture; type: cell-based; conditions: Cowpox virus, HEL, read-out: EC50 Cowpox virus Brighton
in vitro [4] = conditions: human
Vaccinia virus = test: organism not typed; type: cell-based; conditions: HEL
in vitro [5] = conditions: mouse
murine polyomavirus = test: microbe, parasite or virus in culture; type: cell-based; conditions: for EC50: Alphapolyomavirus muris, UC1, UC1B
in vitro [6] = conditions: African green monkey
[7] = system: Human Cytomegalovirus (HCMV); test: microbe, parasite or virus in culture; type: cell-based
[8] = system: herpes simplex virus type 2 (HSV-2); test: microbe, parasite or virus in culture; type: cell-based; conditions: Human alphaherpesvirus 2, HEL, read-out: EC50 HSV-2 (G strain)
in vitro [9] = conditions: human; remark: listed apart in the source
HSV-1 (Kos strain) = test: microbe, parasite or virus in culture; type: cell-based, Herpes simplex virus type 1; conditions: Human alphaherpesvirus 1, HEL
[10] = system: vaccinia virus (Lederle strain); test: microbe, parasite or virus in culture; type: cell-based; conditions: Orthopoxvirus vaccinia, HEL
[11] = system: Molluscum contagiosum virus (MCV) clinical isolates; test: microbe, parasite or virus in culture; type: cell-based; conditions: Keratinocyte
MOLT-3 cells = conditions: human
HSB-2 cells = conditions: human
[12] = system: Vaccinia virus (Western Reserve) and recombinant viruses harboring the A314T, A684V or A314T+A684V mutations; type: cell-based
[13] = read-out: antiviral activity (EC50) SV40 PML-1 strain EK
[14] = read-out: antiviral activity (EC50) SV40 PML-2 strain DAR
[15] = read-out: antiviral activity (EC50) SV40 strain A2895
[16] = read-out: EC50 VZV 07/1 strain (HEL cells)
[17] = read-out: EC50 VZV OKA strain (HEL cells)
[18] = read-out: EC50 Vaccinia Virus Lister
[19] = Orthopoxvirus vaccinia, read-out: EC50 Vaccinia Virus Copenhagen
[20] = Orthopoxvirus vaccinia, read-out: EC50 Vaccinia Virus Lederle
[21] = Orthopoxvirus vaccinia, read-out: EC50 Vaccinia Virus WR
[22] = read-out: antiviral activity (EC50) 2PTA2
[23] = read-out: antiviral activity (EC50) LID-1
[24] = read-out: antiviral activity (EC50) MN/RDE Toronto
[25] = read-out: antiviral activity (EC50) PTA
[26] = Human betaherpesvirus 5, AD169, HEL, read-out: EC50 HCMV AD-169 strain (HEL cells)
[27] = Human betaherpesvirus 5, HEL, read-out: EC50 HCMV Davis strain (HEL cells)

## Nc1ncn(C[C@H]2COP(=O)(O)CO2)c(=O)n1 [Compound 11, 1-{[(5S)-2-Hydroxy-2-oxido-1,4,2-dioxaphosphinan-5-yl]methyl}-5-azacytosine]
[1]
  selectivity index SV40 PML-1 strain EK: 8
  selectivity index SV40 PML-2 strain DAR: 7
  selectivity index SV40 strain A2895: 8
[1]; [13]
  EC50: 4.6 µg/mL (≈ 17.5 µM)
[1]; [14]
  EC50: 5.05 µg/mL (≈ 19.3 µM)
[1]; [15]
  EC50: 4.39 µg/mL (≈ 16.7 µM)
[2]
  EC50: 0.017 µg/mL (≈ 0.0648 µM)
[3]; [16]
  EC50: 0.05 µg/mL (≈ 0.191 µM)
[3]; [17]
  EC50: 0.08 µg/mL (≈ 0.305 µM)
Orf virus (NZ2)
  EC50: 0.09 µg/mL (≈ 0.343 µM)
Cowpox virus (Brighton)
  EC50: 5.64 µg/mL (≈ 21.5 µM)
In vitro [4]
  CC50: > 50 µg/mL
Vaccinia virus; [18]
  EC50: 1.38 µg/mL (≈ 5.26 µM)
Vaccinia virus; [19]
  EC50: 1.76 µg/mL (≈ 6.71 µM)
Vaccinia virus; [20]
  EC50: 3.1 µg/mL (≈ 11.8 µM)
Vaccinia virus; [21]
  EC50: 2.08 µg/mL (≈ 7.93 µM)
In vitro [5]
  CC50: 58.4 µg/mL (≈ 223 µM)
Murine polyomavirus
  selectivity index 2PTA2: 13
  selectivity index LID-1: 7
  selectivity index MN/RDE Toronto: 17
  selectivity index PTA: 7
Murine polyomavirus; [22]
  EC50: 4.39 µg/mL (≈ 16.7 µM)
Murine polyomavirus; [23]
  EC50: 8.05 µg/mL (≈ 30.7 µM)
Murine polyomavirus; [24]
  EC50: 3.43 µg/mL (≈ 13.1 µM)
Murine polyomavirus; [25]
  EC50: 8.59 µg/mL (≈ 32.8 µM)
In vitro [6]
  CC50: 36.4 µg/mL (≈ 139 µM)
[7]; [26]
  EC50: 0.093 µg/mL (≈ 0.355 µM)
[7]; [27]
  EC50: 0.061 µg/mL (≈ 0.233 µM)
[8]
  EC50: 0.58 µg/mL (≈ 2.21 µM)

## Nc1cnn(C[C@@H](CO)OCP(=O)(O)O)c(=O)n1 [HPMP-6-azaC analogue, (S)-1-[3-hydroxy-2-(phosphonomethoxy)propyl]-6-azacytosine]
[3]; [16]
  EC50: 18.4 µg/mL (≈ 65.7 µM)
[3]; [17]
  EC50: 38.2 µg/mL (≈ 136 µM)
[3]; read-out: EC50 VZV YS strain (HEL cells)
  EC50: 42 µg/mL (≈ 150 µM)
[3]; read-out: EC50 VZV YS-R strain (HEL cells)
  EC50: 17 µg/mL (≈ 60.7 µM)
Orf virus (NZ2)
  EC50: ≥ 63.8 µg/mL
Cowpox virus (Brighton)
  EC50: > 100 µg/mL
In vitro [4]
  CC50: > 50 µg/mL
Vaccinia virus; [18]
  EC50: ≥ 79.3 µg/mL
Vaccinia virus; [19]
  EC50: > 100 µg/mL
Vaccinia virus; [20]
  EC50: ≥ 81.6 µg/mL
Vaccinia virus; [21]
  EC50: > 100 µg/mL
[7]; [26]
  EC50: 30 µg/mL (≈ 107 µM)
[7]; [27]
  EC50: 37.3 µg/mL (≈ 133 µM)

## Nc1nc2c(ncn2COCCO)c(=O)[nH]1 [Acyclovir, reference compound]
[2]
  EC50: 0.032 µg/mL (≈ 0.142 µM)
[8]
  EC50: 0.032 µg/mL (≈ 0.142 µM)

## Nc1ccn(C[C@@H](CO)OCP(=O)(O)O)c(=O)n1 [HPMPC, (S)-1-(3-hydroxy-2-phosphonylmethoxypropyl)cytosine, reference compound]
[1]; [13]
  EC50: 5.56 µg/mL (≈ 19.9 µM)
[1]; [14]
  EC50: 5.87 µg/mL (≈ 21 µM)
[1]; [15]
  EC50: 4.72 µg/mL (≈ 16.9 µM)
[2]
  EC50: 0.16 µg/mL (≈ 0.573 µM)
[3]; [16]
  EC50: 0.05 µg/mL (≈ 0.179 µM)
[3]; [17]
  EC50: 0.2 µg/mL (≈ 0.716 µM)
Orf virus (NZ2)
  EC50: 0.2 µg/mL (≈ 0.716 µM)
In vitro [9]
  CC50: > 79 µg/mL
Cowpox virus (Brighton)
  EC50: 8.43 µg/mL (≈ 30.2 µM)
In vitro [4]
  CC50: 68.6 µg/mL (≈ 246 µM)
Vaccinia virus; [18]
  EC50: 2.45 µg/mL (≈ 8.78 µM)
Vaccinia virus; [19]
  EC50: 4.35 µg/mL (≈ 15.6 µM)
Vaccinia virus; [20]
  EC50: 2.43 µg/mL (≈ 8.7 µM)
Vaccinia virus; [21]
  EC50: 5.82 µg/mL (≈ 20.8 µM)
HSV-1 (Kos strain); 2 h, read-out: EC50 HSV-1 (Kos strain), Treatment from 2 h till end of experiment
  EC50: 0.43 µg/mL (≈ 1.54 µM)
HSV-1 (Kos strain); read-out: EC50 HSV-1 (Kos strain), Pretreatment (−16 hours)
  EC50: 1 µg/mL (≈ 3.58 µM)
HSV-1 (Kos strain); read-out: EC50 HSV-1 (Kos strain), Treatment 2-4 hours
  EC50: 2.51 µg/mL (≈ 8.99 µM)
HSV-1 (Kos strain); read-out: EC50 HSV-1 (Kos strain), Treatment 2-6 hours
  EC50: 1.1 µg/mL (≈ 3.94 µM)
HSV-1 (Kos strain); read-out: EC50 HSV-1 (Kos strain), Treatment 2-8 hours
  EC50: 1 µg/mL (≈ 3.58 µM)
[10]; 2 h, read-out: EC50 Vaccinia (Lederle strain), Treatment from 2 h till end of experiment
  EC50: 3.98 µg/mL (≈ 14.3 µM)
[10]; read-out: EC50 Vaccinia (Lederle strain), Pretreatment (−16 hours)
  EC50: 5 µg/mL (≈ 17.9 µM)
[10]; read-out: EC50 Vaccinia (Lederle strain), Treatment 2-4 hours
  EC50: 20 µg/mL (≈ 71.6 µM)
[10]; read-out: EC50 Vaccinia (Lederle strain), Treatment 2-6 hours
  EC50: 9.06 µg/mL (≈ 32.5 µM)
[10]; read-out: EC50 Vaccinia (Lederle strain), Treatment 2-8 hours
  EC50: 10 µg/mL (≈ 35.8 µM)
HEL cells; human
  Toxicity MCC (microscop): >79 µg/mL
In vitro [5]
  CC50: 84.3 µg/mL (≈ 302 µM)
[11]; read-out: EC50 MCV 06/02
  EC50: 0.76 µg/mL (≈ 2.72 µM)
[11]; read-out: EC50 MCV 06/03
  EC50: 0.55 µg/mL (≈ 1.97 µM)
[11]; read-out: EC50 MCV 06/04
  EC50: 0.55 µg/mL (≈ 1.97 µM)
[11]; read-out: EC50 MCV 06/06
  EC50: 0.6 µg/mL (≈ 2.15 µM)
Murine polyomavirus; [22]
  EC50: 5.78 µg/mL (≈ 20.7 µM)
Murine polyomavirus; [23]
  EC50: 5.89 µg/mL (≈ 21.1 µM)
Murine polyomavirus; [24]
  EC50: 2.76 µg/mL (≈ 9.89 µM)
Murine polyomavirus; [25]
  EC50: 6.54 µg/mL (≈ 23.4 µM)
In vitro [6]
  CC50: 79.4 µg/mL (≈ 284 µM)
MOLT-3 cells
  Toxicity MCC (microscopy), MOLT-3 cells: 32 µg/mL
[7]; [26]
  EC50: 0.2 µg/mL (≈ 0.716 µM)
[7]; [27]
  EC50: 0.3 µg/mL (≈ 1.07 µM)
HSB-2 cells
  Toxicity MCC (microscopy), HSB-2 cells: 19 µg/mL
[12]
  EC50 Vaccinia virus (Western Reserve) wild-type: 3.1 µg/mL (≈ 11.1 µM)
  EC50 recombinant vaccinia virus 314 + 684: 39.5 µg/mL
  EC50 recombinant vaccinia virus 684: 14.8 µg/mL
  EC50 recombinant vaccinia virus A314T: 22.2 µg/mL
[8]
  EC50: 0.54 µg/mL (≈ 1.93 µM)

## NC(=NC(=O)NC[C@@H](CO)OCP(=O)(O)O)NC=O.[Na] [Compound 3a, Sodium 3-formyl-2-{[(2S)-3-hydroxy-2-(phosphono-methoxy)propyl]carbamoyl}guanidine]
[1]
  selectivity index SV40 PML-1 strain EK: >20
  selectivity index SV40 PML-2 strain DAR: >24
  selectivity index SV40 strain A2895: >34
[1]; [13]
  EC50: 10 µg/mL
[1]; [14]
  EC50: 8.24 µg/mL
[1]; [15]
  EC50: 5.92 µg/mL
[3]; [16]
  EC50: 0.046 µg/mL
[3]; [17]
  EC50: 0.042 µg/mL
Orf virus (NZ2)
  EC50: 0.37 µg/mL
In vitro [9]
  CC50: > 100 µg/mL
Cowpox virus (Brighton)
  EC50: 12.6 µg/mL
In vitro [4]
  CC50 at 3 days: > 50 µg/mL
Vaccinia virus; [18]
  EC50: 7.61 µg/mL
Vaccinia virus; [19]
  EC50: 5.84 µg/mL
Vaccinia virus; [20]
  EC50: 7.97 µg/mL
Vaccinia virus; [21]
  EC50: 6.34 µg/mL
HEL cells; HEL cells, microscopy
  Toxicity MCC (microscop): >100 µg/mL
In vitro [5]
  CC50: > 200 µg/mL
Murine polyomavirus
  selectivity index 2PTA2: >13
  selectivity index MN/RDE Toronto: >26
Murine polyomavirus; [22]
  EC50: 14.8 µg/mL
Murine polyomavirus; [24]
  EC50: 7.57 µg/mL
In vitro [6]
  CC50: > 200 µg/mL
MOLT-3 cells
  Toxicity MCC (microscopy), MOLT-3 cells: 200 µg/mL
[7]; [26]
  EC50: 0.1 µg/mL
[7]; [27]
  EC50: 0.12 µg/mL
HSB-2 cells
  Toxicity MCC (microscopy), HSB-2 cells: >200 µg/mL
